Data published in ChEMBL document CHEMBL5113453, “Design, synthesis, and biological evaluation of a new series of pyrazole derivatives: Discovery of potent and selective JNK3 kinase inhibitors” (Bioorg Med Chem, 2022).

Columns and labels:
[1] = biological target: T1, Mitogen-activated protein kinase 10 (Homo sapiens, UniProt P53779); assay: Inhibition of JNK3 (unknown origin) at 1 uM relative to control
[2] = biological target: T1, Mitogen-activated protein kinase 10; assay: Inhibition of JNK3 (unknown origin)
HepG2 = assay: Antiproliferative activity against human HepG2 cells measured by MTT assay; assay type: functional, cell-based
WI-38 = assay: Antiproliferative activity against human WI-38 cells measured by MTT assay; assay type: functional, cell-based
[3] = tested on: Serine/threonine-protein kinase B-raf (Homo sapiens), P15056 [V600E]; assay: Inhibition of B-RAF V600E mutant (unknown origin) at 1 uM relative to control
[4] = biological target: T2, Platelet-derived growth factor receptor alpha (Homo sapiens, UniProt P16234); assay: Inhibition of PDGFRalpha (unknown origin) at 1 uM relative to control
[5] = biological target: T2, Platelet-derived growth factor receptor alpha; assay: Inhibition of PDGFRalpha (unknown origin)
[6] = biological target: T1, Mitogen-activated protein kinase 10; assay: Inhibition of JNK3 in human HEK293 cells transfected with JNK3-NanoLuc fusion vector measured after 1 hr by NanoBRET assay; assay type: cell-based
Cytochrome P450 2D6 = Cytochrome P450 2D6 (Homo sapiens, UniProt P10635); assay: Inhibition of CYP2D6 (unknown origin) using EOMCC as a substrate; assay type: ADME
Cytochrome P450 3A4 = Cytochrome P450 3A4 (Homo sapiens, UniProt P08684); assay: Inhibition of CYP3A4 (unknown origin) using BOMCC as a substrate; assay type: ADME
[7] = biological target: Voltage-gated inwardly rectifying potassium channel KCNH2 (Homo sapiens, UniProt Q12809); assay: Inhibition of hERG measured by fluorescence polarization assay
Homo sapiens = organism: Homo sapiens; assay: RatioIC50 for inhibition of […] (unknown origin)
HL-60(TB) = assay: Antiproliferative activity against human HL-60(TB) cells measured after 48 hrs by SRB assay; assay type: functional, cell-based; details: HL-60, time 48 hrs
MOLT-4 = assay: Antiproliferative activity against human MOLT-4 cells measured after 48 hrs by SRB assay; assay type: functional, cell-based; details: MOLT-4, time 48 hrs
HOP-92 = assay: Antiproliferative activity against human HOP-92 cells measured after 48 hrs by SRB assay; assay type: functional, cell-based; details: HOP-92, time 48 hrs
NCI-H23 = assay: Antiproliferative activity against human NCI-H23 cells measured after 48 hrs by SRB assay; assay type: functional, cell-based; details: NCI-H23, time 48 hrs
UACC-257 = assay: Antiproliferative activity against human UACC-257 cells measured after 48 hrs by SRB assay; assay type: functional, cell-based; details: UACC-257, time 48 hrs
IGROV-1 = assay: Antiproliferative activity against human IGROV-1 cells measured after 48 hrs by SRB assay; assay type: functional, cell-based; details: IGROV-1, time 48 hrs
NCI/ADR-RES = assay: Antiproliferative activity against human NCI-ADR-RES cells measured after 48 hrs by SRB assay; assay type: functional, cell-based; details: time 48 hrs
ACHN = assay: Antiproliferative activity against human ACHN cells measured after 48 hrs by SRB assay; assay type: functional, cell-based; details: time 48 hrs
TK-10 = assay: Antiproliferative activity against human TK-10 cells measured after 48 hrs by SRB assay; assay type: functional, cell-based; details: TK-10, time 48 hrs
MCF7 = assay: Antiproliferative activity against human MCF7 cells measured after 48 hrs by SRB assay; assay type: functional, cell-based; details: MCF7, time 48 hrs

T1 sequence (P53779 whole entry): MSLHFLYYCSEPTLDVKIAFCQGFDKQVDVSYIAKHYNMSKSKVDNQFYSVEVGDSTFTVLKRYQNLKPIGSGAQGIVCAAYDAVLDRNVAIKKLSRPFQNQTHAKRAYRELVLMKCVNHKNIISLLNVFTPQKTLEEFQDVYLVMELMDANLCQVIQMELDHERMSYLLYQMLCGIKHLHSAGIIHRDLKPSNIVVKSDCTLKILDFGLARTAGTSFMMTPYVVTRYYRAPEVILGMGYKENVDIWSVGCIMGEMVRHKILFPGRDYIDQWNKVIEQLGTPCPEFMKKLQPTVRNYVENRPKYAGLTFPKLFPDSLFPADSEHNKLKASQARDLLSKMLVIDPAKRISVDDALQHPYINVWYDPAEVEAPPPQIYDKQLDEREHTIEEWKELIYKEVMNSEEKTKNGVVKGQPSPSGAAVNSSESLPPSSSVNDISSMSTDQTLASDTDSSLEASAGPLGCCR
T2 sequence (P16234 whole entry): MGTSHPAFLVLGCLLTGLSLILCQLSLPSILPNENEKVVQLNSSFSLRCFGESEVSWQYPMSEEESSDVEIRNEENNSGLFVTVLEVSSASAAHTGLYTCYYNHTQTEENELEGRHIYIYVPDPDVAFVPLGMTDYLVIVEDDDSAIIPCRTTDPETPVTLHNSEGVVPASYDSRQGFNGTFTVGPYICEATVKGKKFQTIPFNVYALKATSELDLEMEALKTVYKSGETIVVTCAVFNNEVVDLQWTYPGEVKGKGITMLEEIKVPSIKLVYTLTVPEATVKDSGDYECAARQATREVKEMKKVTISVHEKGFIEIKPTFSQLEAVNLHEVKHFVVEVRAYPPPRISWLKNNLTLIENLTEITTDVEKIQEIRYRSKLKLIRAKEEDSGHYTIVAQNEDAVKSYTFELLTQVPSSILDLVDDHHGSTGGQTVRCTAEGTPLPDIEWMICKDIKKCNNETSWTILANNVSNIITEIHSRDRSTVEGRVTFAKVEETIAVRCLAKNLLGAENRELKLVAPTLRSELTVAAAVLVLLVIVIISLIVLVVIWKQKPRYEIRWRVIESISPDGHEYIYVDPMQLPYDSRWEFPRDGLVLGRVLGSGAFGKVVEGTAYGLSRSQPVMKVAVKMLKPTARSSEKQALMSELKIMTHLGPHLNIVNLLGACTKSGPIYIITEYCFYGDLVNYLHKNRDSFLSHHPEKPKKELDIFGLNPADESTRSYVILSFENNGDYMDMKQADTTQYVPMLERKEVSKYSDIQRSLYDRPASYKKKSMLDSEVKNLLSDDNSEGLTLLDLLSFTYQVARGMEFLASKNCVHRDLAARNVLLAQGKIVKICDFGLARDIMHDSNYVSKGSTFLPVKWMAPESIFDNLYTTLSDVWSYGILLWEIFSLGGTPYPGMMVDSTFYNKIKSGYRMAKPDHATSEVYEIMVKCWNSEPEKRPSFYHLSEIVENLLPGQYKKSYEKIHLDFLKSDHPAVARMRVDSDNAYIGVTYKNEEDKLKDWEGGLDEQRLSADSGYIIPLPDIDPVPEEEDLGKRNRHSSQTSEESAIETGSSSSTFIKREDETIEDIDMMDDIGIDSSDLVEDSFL
Sequence of Cytochrome P450 2D6 (P10635 whole entry): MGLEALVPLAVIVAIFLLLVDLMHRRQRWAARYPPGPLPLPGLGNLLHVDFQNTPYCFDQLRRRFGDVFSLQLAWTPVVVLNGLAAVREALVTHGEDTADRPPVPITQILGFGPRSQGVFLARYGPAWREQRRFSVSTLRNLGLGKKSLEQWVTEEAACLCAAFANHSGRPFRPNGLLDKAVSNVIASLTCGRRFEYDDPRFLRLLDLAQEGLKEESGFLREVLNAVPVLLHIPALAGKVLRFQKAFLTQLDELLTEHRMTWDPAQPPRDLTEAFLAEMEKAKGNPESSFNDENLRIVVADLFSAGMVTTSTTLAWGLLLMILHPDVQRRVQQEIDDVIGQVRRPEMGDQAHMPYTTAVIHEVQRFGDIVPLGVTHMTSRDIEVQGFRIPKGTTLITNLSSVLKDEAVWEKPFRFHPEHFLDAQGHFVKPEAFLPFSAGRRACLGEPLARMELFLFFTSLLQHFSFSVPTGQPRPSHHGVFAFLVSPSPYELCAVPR
Sequence of Voltage-gated inwardly rectifying potassium channel KCNH2 (Q12809 whole entry): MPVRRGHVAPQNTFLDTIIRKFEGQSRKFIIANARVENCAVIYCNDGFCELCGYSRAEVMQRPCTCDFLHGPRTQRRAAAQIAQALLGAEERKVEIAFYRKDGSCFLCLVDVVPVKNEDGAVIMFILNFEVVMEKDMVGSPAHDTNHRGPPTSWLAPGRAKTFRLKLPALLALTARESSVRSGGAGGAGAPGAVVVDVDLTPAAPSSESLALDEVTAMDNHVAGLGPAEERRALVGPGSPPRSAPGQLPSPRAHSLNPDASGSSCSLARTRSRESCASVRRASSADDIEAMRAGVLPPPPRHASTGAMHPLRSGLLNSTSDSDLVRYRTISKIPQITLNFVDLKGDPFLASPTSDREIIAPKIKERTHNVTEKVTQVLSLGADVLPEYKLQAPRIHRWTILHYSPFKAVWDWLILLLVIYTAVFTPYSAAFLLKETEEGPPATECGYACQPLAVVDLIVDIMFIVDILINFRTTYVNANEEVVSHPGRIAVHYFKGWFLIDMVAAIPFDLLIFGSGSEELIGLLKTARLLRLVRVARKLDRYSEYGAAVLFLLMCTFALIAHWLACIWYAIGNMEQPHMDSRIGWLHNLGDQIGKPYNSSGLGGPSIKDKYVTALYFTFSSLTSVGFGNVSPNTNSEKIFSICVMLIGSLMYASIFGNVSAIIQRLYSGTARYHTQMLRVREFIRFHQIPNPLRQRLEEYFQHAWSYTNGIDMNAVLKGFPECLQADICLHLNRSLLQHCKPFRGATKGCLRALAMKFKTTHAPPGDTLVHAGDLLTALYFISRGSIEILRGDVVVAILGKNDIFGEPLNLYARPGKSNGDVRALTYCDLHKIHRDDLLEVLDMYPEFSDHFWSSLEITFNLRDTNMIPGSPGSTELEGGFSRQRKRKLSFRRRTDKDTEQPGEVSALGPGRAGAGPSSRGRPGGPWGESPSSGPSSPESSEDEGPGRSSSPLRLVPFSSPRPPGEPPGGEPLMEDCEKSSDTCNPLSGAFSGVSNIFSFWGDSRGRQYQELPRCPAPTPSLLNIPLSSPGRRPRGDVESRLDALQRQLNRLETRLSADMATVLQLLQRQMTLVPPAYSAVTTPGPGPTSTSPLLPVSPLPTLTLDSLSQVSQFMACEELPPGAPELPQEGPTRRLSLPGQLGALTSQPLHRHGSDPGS
Sequence of Cytochrome P450 3A4 (P08684 whole entry): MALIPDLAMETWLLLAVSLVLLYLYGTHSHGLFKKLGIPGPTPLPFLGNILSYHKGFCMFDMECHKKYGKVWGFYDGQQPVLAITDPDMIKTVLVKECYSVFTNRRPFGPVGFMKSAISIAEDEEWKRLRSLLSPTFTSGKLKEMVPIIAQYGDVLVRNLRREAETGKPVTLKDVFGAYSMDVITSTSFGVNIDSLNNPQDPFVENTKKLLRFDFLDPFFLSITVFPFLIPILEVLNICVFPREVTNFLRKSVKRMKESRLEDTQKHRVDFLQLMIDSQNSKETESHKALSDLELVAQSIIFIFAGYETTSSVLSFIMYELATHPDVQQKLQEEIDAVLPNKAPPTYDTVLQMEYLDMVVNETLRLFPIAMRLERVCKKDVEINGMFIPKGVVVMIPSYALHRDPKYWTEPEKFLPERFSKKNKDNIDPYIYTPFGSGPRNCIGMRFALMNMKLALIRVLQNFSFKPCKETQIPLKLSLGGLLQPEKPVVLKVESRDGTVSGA
Sequence of Serine/threonine-protein kinase B-raf (Homo sapiens), P15056 [V600E] (P15056 whole entry V600E): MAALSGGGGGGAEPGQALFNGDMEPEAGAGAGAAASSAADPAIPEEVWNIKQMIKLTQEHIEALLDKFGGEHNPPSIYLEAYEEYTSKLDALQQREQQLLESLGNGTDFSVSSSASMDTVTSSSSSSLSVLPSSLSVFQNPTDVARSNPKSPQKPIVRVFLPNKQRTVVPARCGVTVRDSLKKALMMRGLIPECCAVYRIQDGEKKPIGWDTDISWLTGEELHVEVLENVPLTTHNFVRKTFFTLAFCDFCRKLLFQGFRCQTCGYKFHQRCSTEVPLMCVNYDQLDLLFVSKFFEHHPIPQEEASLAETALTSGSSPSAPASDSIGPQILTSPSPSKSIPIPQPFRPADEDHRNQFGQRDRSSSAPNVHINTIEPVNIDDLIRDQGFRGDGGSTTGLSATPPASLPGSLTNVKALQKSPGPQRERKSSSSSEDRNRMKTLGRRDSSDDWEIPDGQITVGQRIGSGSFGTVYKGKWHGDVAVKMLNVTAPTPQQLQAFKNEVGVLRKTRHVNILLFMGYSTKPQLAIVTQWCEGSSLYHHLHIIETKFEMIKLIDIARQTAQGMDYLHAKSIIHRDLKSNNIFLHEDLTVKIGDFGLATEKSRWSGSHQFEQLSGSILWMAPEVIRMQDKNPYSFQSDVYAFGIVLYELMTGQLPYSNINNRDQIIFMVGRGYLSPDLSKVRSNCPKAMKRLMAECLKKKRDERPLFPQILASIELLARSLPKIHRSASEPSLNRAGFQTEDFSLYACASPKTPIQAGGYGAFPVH

SMILES | inhibition [1] [%] | IC50 [2] [µM] | also measured
O=C(Nc1ccc(F)cc1)N1CCN(c2cc(-c3cn(-c4ccccc4)nc3-c3cccc(O)c3)ccn2)CC1 | 8 | > 1 | –
O=C(NCCNc1cc(-c2cn(-c3ccccc3)nc2-c2cccc(O)c2)ccn1)Nc1ccc(F)cc1 | 83 | 0.189 | –
COc1cccc(-c2nn(-c3ccccc3)cc2-c2ccnc(N3CCN(C(=O)Nc4ccc(Cl)c(C(F)(F)F)c4)CC3)c2)c1 | 7 | > 1 | –
O=C(NCCNc1cc(-c2cn(-c3ccccc3)nc2-c2cccc(O)c2)ccn1)Nc1cccc(C(F)(F)F)c1 | 84 | 0.099 | IC50 (HepG2): 1.56 µM; IC50 (WI-38): 18.5 µM; inhibition [3]: 9%; inhibition [4]: 50%; IC50 [5]: 1 µM; IC50 [6]: 3.92 µM; IC50 (Cytochrome P450 2D6): 6.24 µM; IC50 (Cytochrome P450 3A4): 20.5 µM; IC50 [7]: > 50 µM; Ratio IC50 (Homo sapiens): 10.1
COc1cccc(-c2nn(-c3ccccc3)cc2-c2ccnc(N3CCN(C(=O)Nc4cc(C(F)(F)F)cc(C(F)(F)F)c4)CC3)c2)c1 | 9 | > 1 | –
O=C(Nc1cc(C(F)(F)F)cc(C(F)(F)F)c1)N1CCN(c2cc(-c3cn(-c4ccccc4)nc3-c3cccc(O)c3)ccn2)CC1 | 1 | > 1 | –
COc1cccc(-c2nn(-c3ccccc3)cc2-c2ccnc(N3CCN(C(=O)Nc4ccc(Cl)c(Cl)c4)CC3)c2)c1 | 4 | > 1 | –
O=C(NCCCNc1cc(-c2cn(-c3ccccc3)nc2-c2cccc(O)c2)ccn1)Nc1ccc(Cl)c(Cl)c1 | 13 | > 1 | –
O=C(NCCCNc1cc(-c2cn(-c3ccccc3)nc2-c2cccc(O)c2)ccn1)Nc1cc(C(F)(F)F)cc(C(F)(F)F)c1 | 0 | > 1 | –
O=C(NCCNc1cc(-c2cn(-c3ccccc3)nc2-c2cccc(O)c2)ccn1)Nc1ccc(Cl)c(C(F)(F)F)c1 | 38 | > 1 | –
O=C(NCCNc1cc(-c2cn(-c3ccccc3)nc2-c2cccc(O)c2)ccn1)Nc1ccc(Cl)c(Cl)c1 | 69 | 0.526 | IC50 (HepG2): 2.84 µM; IC50 (WI-38): 17.4 µM
COc1cccc(-c2nn(-c3ccccc3)cc2-c2ccnc(N3CCN(C(=O)Nc4ccc(F)cc4)CC3)c2)c1 | 0 | > 1 | –
CNC(=O)c1cc(Oc2ccc(NC(=O)Nc3ccc(Cl)c(C(F)(F)F)c3)cc2)ccn1 [SORAFENIB] | – | – | TGI (HL-60(TB)): 100 µM; TGI (MOLT-4): 100 µM; TGI (HOP-92): 5.01 µM; TGI (NCI-H23): 5.01 µM; TGI (UACC-257): 5.01 µM; TGI (IGROV-1): 10 µM; TGI (NCI/ADR-RES): 7.94 µM; TGI (ACHN): 10 µM; TGI (TK-10): 10 µM; TGI (MCF7): 7.94 µM; IC50 (WI-38): 14.7 µM
O=C(Nc1ccccc1)N1CCN(c2cc(-c3cn(-c4ccccc4)nc3-c3cccc(O)c3)ccn2)CC1 | 6 | > 1 | –
O=C(Nc1ccc(Cl)c(Cl)c1)N1CCN(c2cc(-c3cn(-c4ccccc4)nc3-c3cccc(O)c3)ccn2)CC1 | 3 | > 1 | –
COc1cccc(-c2nn(-c3ccccc3)cc2-c2ccnc(N3CCN(C(=O)Nc4ccccc4)CC3)c2)c1 | 8 | > 1 | –
COc1cccc(-c2nn(-c3ccccc3)cc2-c2ccnc(N3CCN(C(=O)Nc4cccc(C(F)(F)F)c4)CC3)c2)c1 | 10 | > 1 | –
O=C(NCCNc1cc(-c2cn(-c3ccccc3)nc2-c2cccc(O)c2)ccn1)Nc1cc(C(F)(F)F)cc(C(F)(F)F)c1 | 19 | > 1 | –
O=C(Nc1cccc(C(F)(F)F)c1)N1CCN(c2cc(-c3cn(-c4ccccc4)nc3-c3cccc(O)c3)ccn2)CC1 | 17 | > 1 | –
O=C(NCCCNc1cc(-c2cn(-c3ccccc3)nc2-c2cccc(O)c2)ccn1)Nc1ccc(Cl)c(C(F)(F)F)c1 | 63 | 0.614 | –
